Experimental data from patent US20050209157A1, “Short bioactive peptides and methods for their use” (priority 2001, published 2005).
Values after ≈ are worked out from the molar mass of the structure shown. Like-named read-outs stand apart in the source and are kept apart here. No end group written: not given here.

Experiments:
[1] = test system: Pseudomonas aeruginosa H187; format: cell-based; details: in µg/mL
[2] = test system: Candida glabrata ATCC15126; assay: Antimicrobial assays II, NCCLS broth microdilution MIC; format: cell-based; details: Table 10; in µg/mL
[3] = test system: S. aureus (MRSA); format: cell-based, Staphylococcus aureus; details: in µg/mL
[4] = test system: E. coli UB1005; format: cell-based, Escherichia coli
[5] = test system: Candida tropicalis ATCC13803; assay: Antimicrobial assays II, NCCLS broth microdilution MIC; format: cell-based; details: Table 10
Experimental: Anti-microbial activity against a broader range of pathogens (including clinical strains) than were tested in Example 2. It should be noted that somewhat different protocols were employed for the assays in Example 2 and Example 3.
MICs were determined for this Example using a slightly modified version of the NCCLS (National Committee for Clinical Laboratory Standards) broth microdilution method as described previously (Steinberg et al., AAC 41: 1738, 1997). Briefly, antimicrobial agents were prepared as 10× concentrates in the most appropriate solvent. For the peptide, 0.01% acetic acid containing 0.2% bovine serum albumin as a carrier protein was used. Inocula were prepared by resuspending colonies from a BAP in medium and adjusting the suspension to match that of a 0.5 McFarland standard. The suspension was diluted into fresh medium (as recommended by NCCLS for the organism) to give 2×10^5 to 7×10^5 CFU/ml for bacteria or 2×10^3 to 7×10^3 CFU/ml for Candida. After dispensing 100 μl aliquots of the microbial suspension into each well of a 96-well polypropylene microtiter plate, 11 μl of test compound was added. […] For facultative anaerobes incubation was performed in 7% carbon dioxide and for strict anaerobes in an oxygen free environment maintained using a standard anaerobic “jar”. All MICs were performed three times and the mean value determined.

[6] = test system: Candida albicans 105; format: cell-based; details: in µg/mL
[7] = test system: S. typhimurium 14028S; format: cell-based, Salmonella typhimurium
[8] = test system: Escherichia coli 25922; assay: microbe, parasite or virus in culture
Source text: Synergy between peptide Shiva-10 (SEQ ID NO:4) and various antimicrobial agents was investigated against Escherichia coli 25922.
Synergy between tetracycline and various peptides was investigated against Escherichia coli 25922 MBC. […] When combined with the peptides, the concentration of tetracycline was held at 1.5 ppm.

[9] = test system: Staph. aureus 29213; assay: microbe, parasite or virus in culture
Source text: This experiment determined the peptide MBC in the absence of the antimicrobial agent, or in the presence of the indicated concentration of antimicrobial agent

[10] = test system: P. aeruginosa H374; format: cell-based, Pseudomonas aeruginosa; details: Table 14; in µg/mL
[11] = test system: S. epidermidis C621; format: cell-based, Staphylococcus epidermidis; details: Table 15

| Compound | MIC P. aeruginosa H187 ([1]; Table 11) | MIC C. glabrata ATCC15126 [2] | MIC S. aureus SAP0017 ([3]; Table 11, strain SAP0017) | MIC E. coli UB1005 ([4]; Table 11) | MIC C. tropicalis ATCC13803 [5] | MIC C. albicans 105 ([6]; Table 10) | MIC S. typhimurium 14028S ([7]; Table 11) | MBC ([8]; Escherichia coli, 25922, read-out: MBC, Without peptide) | MBC, With peptide ([8]; with 15 μg/mL peptide Shiva-10) | MBC ([9]; Staphylococcus aureus, 29213, read-out: MBC, Without peptide) | MBC, With 5 μg/mL peptide ([9]; with 5 μg/mL peptide Shiva-10) | MIC P. aeruginosa H374 [10] | MIC P. aeruginosa H187 ([1]; Table 15) | MIC S. epidermidis C621 [11] | MIC S. aureus SAP0017 ([3]; Table 15, strain SAP0017) | MIC E. coli UB1005 ([4]; Table 14) | MIC C. albicans 105 ([6]; Table 15) | MIC S. typhimurium 14028S ([7]; Table 14) |
| --- | --- | --- | --- | --- | --- | --- | --- | --- | --- | --- | --- | --- | --- | --- | --- | --- | --- | --- |
| FAKLLAKALKKL-NH2 [P103 (67)] | 64 | 16 | 64 | 32 µg/mL | 2 µg/mL | 16 | 128 µg/mL |  |  |  |  |  |  |  |  |  |  |  |
| FAKLLAKALKLKL-NH2 [P101 (65)] | 32-128 | 32 | 128 | 32 µg/mL | 4 µg/mL | 32 | 128 µg/mL |  |  |  |  |  |  |  |  |  |  |  |
| C[C@H]1c2cccc(O)c2C(=O)C2=C(O)[C@]3(O)C(=O)C(C(N)=O)=C(O)[C@@H](N(C)C)[C@@H]3[C@@H](O)[C@@H]21 [Doxycycline] |  |  |  |  |  |  |  | 5 µg/mL | 1 µg/mL |  |  |  |  |  |  |  |  |  |
| VAKLLAKLAKKVL-NH2 [P154 (116)] | >128 | 128 | >128 | 64 µg/mL | 8 µg/mL | 64 | > 128 µg/mL |  |  |  |  |  |  |  |  |  |  |  |
| NC[C@H]1O[C@H](O[C@H]2[C@H](O)[C@@H](O[C@H]3O[C@H](CO)[C@@H](O)[C@H](N)[C@H]3O)[C@H](N)C[C@@H]2N)[C@H](N)C[C@@H]1O [Tobramycin] |  |  |  |  |  |  |  |  |  | 25 µg/mL (≈ 53.5 µM) | 10 µg/mL (≈ 21.4 µM) |  |  |  |  |  |  |  |
| FALALKLAKKAL-NH2 [P167 (128)] | 128 | 128 | 128 | 32 µg/mL | 8 µg/mL | 64 | 64 µg/mL |  |  |  |  |  |  |  |  |  |  |  |
| FALAKKALKKAKKAL-NH2 [P40 (22)] | >128 | 32 | >128 | 64 µg/mL | 1 µg/mL | 32 | > 128 µg/mL |  |  |  |  |  |  |  |  |  |  |  |
| FALALKALKK-NH2 [P169 (130)] | 128 | 128 | >128 | 32 µg/mL | 8 µg/mL | 64 | 64 µg/mL |  |  |  |  | 128 | >128 | 32 µg/mL | >128 | 64 µg/mL | 64 | 64 µg/mL |
| FAKLLAKLAKKL-NH2 [P49 (31)] | 16-64 | 16 | 64 | 32 µg/mL | 2 µg/mL | 16 | 64 µg/mL |  |  |  |  |  |  |  |  |  |  |  |
| FAKLLAKFLKKAL-NH2 [P113 (77)] | 32-128 | 32 | 32 | 32 µg/mL | 4 µg/mL | 32 | 44 µg/mL |  |  |  |  |  |  |  |  |  |  |  |
